Experimental data from the supplement of paper PMC10307832.

What was measured:
Assay in all cases: relative viability (nuclei count vs DMSO), 5 days (fraction); higher = more cells survive
Ibrutinib + Palbociclib = compound: C=CC(=O)N1CCC[C@@H](n2nc(-c3ccc(Oc4ccccc4)cc3)c3c(N)ncnc32)C1 [Ibrutinib] + CC(=O)c1c(C)c2cnc(Nc3ccc(N4CCNCC4)cn3)nc2n(C2CCCC2)c1=O [Palbociclib] (partner 0.5 µM)
Method in brief: (§1)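 Lung cancer cell lines in 1536-well plates got either a single drug or a fixed anchor-drug dose together with five library-drug doses (not always all listed) in √10 steps, by pin tool, on the day after seeding. Nuclei were counted after 5 days, and relative viability is the treated-to-vehicle ratio of nuclei counts. Values are medians of duplicate plates.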

Ibrutinib + Navitoclax = compound: C=CC(=O)N1CCC[C@@H](n2nc(-c3ccc(Oc4ccccc4)cc3)c3c(N)ncnc32)C1 [Ibrutinib] + CC1(C)CCC(c2ccc(Cl)cc2)=C(CN2CCN(c3ccc(C(=O)NS(=O)(=O)c4ccc(N[C@H](CCN5CCOCC5)CSc5ccccc5)c(S(=O)(=O)C(F)(F)F)c4)cc3)CC2)C1 [Navitoclax] (partner 0.5 µM)
Method in brief: as §1

Ibrutinib + Linsitinib = compound: C=CC(=O)N1CCC[C@@H](n2nc(-c3ccc(Oc4ccccc4)cc3)c3c(N)ncnc32)C1 [Ibrutinib] + C[C@]1(O)C[C@@H](c2nc(-c3ccc4ccc(-c5ccccc5)nc4c3)c3c(N)nccn32)C1 [Linsitinib] (partner 1 µM)
Method in brief: as §1

PAC-1 + OSI-027 = compound: C=CCc1cccc(/C=N/NC(=O)CN2CCN(Cc3ccccc3)CC2)c1O [PAC-1] + COc1cccc2cc(-c3nc([C@H]4CC[C@H](C(=O)O)CC4)n4ncnc(N)c34)[nH]c12 [OSI-027] (partner 0.5 µM)
Method in brief: as §1

SK-MES-1
relative viability (Ibrutinib + Palbociclib; first compound 0.005 µM): 0.337
relative viability (Ibrutinib + Palbociclib; first compound 0.01581 µM): 0.324
relative viability (Ibrutinib + Palbociclib; first compound 0.05 µM): 0.382
relative viability (Ibrutinib + Palbociclib; first compound 0.1581 µM): 0.366
relative viability (Ibrutinib + Palbociclib; first compound 0.5 µM): 0.245
relative viability (Ibrutinib + Navitoclax; first compound 0.005 µM): 1.19
relative viability (Ibrutinib + Navitoclax; first compound 0.01581 µM): 1.2
relative viability (Ibrutinib + Navitoclax; first compound 0.05 µM): 1.34
relative viability (Ibrutinib + Navitoclax; first compound 0.1581 µM): 1.32
relative viability (Ibrutinib + Navitoclax; first compound 0.5 µM): 0.723
relative viability (Ibrutinib + Linsitinib; first compound 0.005 µM): 1.06
relative viability (Ibrutinib + Linsitinib; first compound 0.01581 µM): 0.937
relative viability (Ibrutinib + Linsitinib; first compound 0.05 µM): 1.11
relative viability (Ibrutinib + Linsitinib; first compound 0.1581 µM): 1.06
relative viability (Ibrutinib + Linsitinib; first compound 0.5 µM): 0.447
relative viability (PAC-1 + OSI-027; first compound 0.02 µM): 0.651
relative viability (PAC-1 + OSI-027; first compound 0.06325 µM): 0.636
relative viability (PAC-1 + OSI-027; first compound 0.2 µM): 0.533
relative viability (PAC-1 + OSI-027; first compound 2 µM): 0.645
